Test results taken from ChEMBL document CHEMBL1154040, “Synthesis and evaluation of novel F-18 labeled fluoroarylvaline derivatives: potential PET imaging agents for tumor detection” (Bioorg Med Chem Lett, 2009).

Tested on: Brain
Experiment: Biodistribution in S180 tumor-bearing KM mouse brain assessed per gram of tissue at 240 to 370 kBq, iv after 15 mins
Format: ADME, organism-based
Settings: in vivo, 0.25 h

Compound | Drug uptake
COC(=O)[C@@H](NC(=O)c1ccc([N+](=O)[O-])cc1[18F])C(C)C | 0.6 %ID

Tested on: Brain
Experiment: Biodistribution in S180 tumor-bearing KM mouse brain assessed per gram of tissue at 240 to 370 kBq, iv after 5 mins
Format: ADME, organism-based
Settings: in vivo

Compound | Drug uptake
COC(=O)[C@@H](NC(=O)c1ccc([N+](=O)[O-])cc1[18F])C(C)C | 0.99 %ID

Tested on: Spleen
Experiment: Biodistribution in S180 tumor-bearing KM mouse spleen assessed per gram of tissue at 240 to 370 kBq, iv after 60 mins
Format: ADME, organism-based
Settings: in vivo, 1 h

Compound | Drug uptake
COC(=O)[C@@H](NC(=O)c1ccc([N+](=O)[O-])cc1[18F])C(C)C | 0.31 %ID

Tested on: Spleen
Experiment: Biodistribution in S180 tumor-bearing KM mouse spleen assessed per gram of tissue at 240 to 370 kBq, iv after 15 mins
Format: ADME, organism-based
Settings: in vivo, 0.25 h

Compound | Drug uptake
COC(=O)[C@@H](NC(=O)c1ccc([N+](=O)[O-])cc1[18F])C(C)C | 1.13 %ID

Tested on: Spleen
Experiment: Biodistribution in S180 tumor-bearing KM mouse spleen assessed per gram of tissue at 240 to 370 kBq, iv after 5 mins
Format: ADME, organism-based
Settings: in vivo

Compound | Drug uptake
COC(=O)[C@@H](NC(=O)c1ccc([N+](=O)[O-])cc1[18F])C(C)C | 1.48 %ID

Tested on: Muscle tissue
Experiment: Biodistribution in S180 tumor-bearing KM mouse muscle assessed per gram of tissue at 240 to 370 kBq, iv after 120 mins
Format: ADME, organism-based
Settings: in vivo, 2 h

Compound | Drug uptake
COC(=O)[C@@H](NC(=O)c1ccc([N+](=O)[O-])cc1[18F])C(C)C | 0.58 %ID

Tested on: Muscle tissue
Experiment: Biodistribution in S180 tumor-bearing KM mouse muscle assessed per gram of tissue at 240 to 370 kBq, iv after 60 mins
Format: ADME, organism-based
Settings: in vivo, 1 h

Compound | Drug uptake
COC(=O)[C@@H](NC(=O)c1ccc([N+](=O)[O-])cc1[18F])C(C)C | 0.69 %ID

Tested on: Muscle tissue
Experiment: Biodistribution in S180 tumor-bearing KM mouse muscle assessed per gram of tissue at 240 to 370 kBq, iv after 15 mins
Format: ADME, organism-based
Settings: in vivo, 0.25 h

Compound | Drug uptake
COC(=O)[C@@H](NC(=O)c1ccc([N+](=O)[O-])cc1[18F])C(C)C | 1.39 %ID

Tested on: Muscle tissue
Experiment: Biodistribution in S180 tumor-bearing KM mouse muscle assessed per gram of tissue at 240 to 370 kBq, iv after 5 mins
Format: ADME, organism-based
Settings: in vivo

Compound | Drug uptake
COC(=O)[C@@H](NC(=O)c1ccc([N+](=O)[O-])cc1[18F])C(C)C | 1.43 %ID

Tested on: Kidney
Experiment: Biodistribution in S180 tumor-bearing KM mouse kidney assessed per gram of tissue at 240 to 370 kBq, iv after 120 mins
Format: ADME, organism-based
Settings: in vivo, 2 h

Compound | Drug uptake
COC(=O)[C@@H](NC(=O)c1ccc([N+](=O)[O-])cc1[18F])C(C)C | 0.29 %ID

Tested on: Kidney
Experiment: Biodistribution in S180 tumor-bearing KM mouse kidney assessed per gram of tissue at 240 to 370 kBq, iv after 60 mins
Format: ADME, organism-based
Settings: in vivo, 1 h

Compound | Drug uptake
COC(=O)[C@@H](NC(=O)c1ccc([N+](=O)[O-])cc1[18F])C(C)C | 0.35 %ID

Tested on: Kidney
Experiment: Biodistribution in S180 tumor-bearing KM mouse kidney assessed per gram of tissue at 240 to 370 kBq, iv after 30 mins
Format: ADME, organism-based
Settings: in vivo, 0.5 h

Compound | Drug uptake
COC(=O)[C@@H](NC(=O)c1ccc([N+](=O)[O-])cc1[18F])C(C)C | 3.8 %ID

Tested on: Kidney
Experiment: Biodistribution in S180 tumor-bearing KM mouse kidney assessed per gram of tissue at 240 to 370 kBq, iv after 15 mins
Format: ADME, organism-based
Settings: in vivo, 0.25 h

Compound | Drug uptake
COC(=O)[C@@H](NC(=O)c1ccc([N+](=O)[O-])cc1[18F])C(C)C | 11.28 %ID

Tested on: Lung
Experiment: Biodistribution in S180 tumor-bearing KM mouse lung assessed per gram of tissue at 240 to 370 kBq, iv after 120 mins
Format: ADME, organism-based
Settings: in vivo, 2 h

Compound | Drug uptake
COC(=O)[C@@H](NC(=O)c1ccc([N+](=O)[O-])cc1[18F])C(C)C | 0.25 %ID

Tested on: Lung
Experiment: Biodistribution in S180 tumor-bearing KM mouse lung assessed per gram of tissue at 240 to 370 kBq, iv after 15 mins
Format: ADME, organism-based
Settings: in vivo, 0.25 h

Compound | Drug uptake
COC(=O)[C@@H](NC(=O)c1ccc([N+](=O)[O-])cc1[18F])C(C)C | 2.57 %ID

Tested on: Liver
Experiment: Biodistribution in S180 tumor-bearing KM mouse liver assessed per gram of tissue at 240 to 370 kBq, iv after 120 mins
Format: ADME, organism-based
Settings: in vivo, 2 h

Compound | Drug uptake
COC(=O)[C@@H](NC(=O)c1ccc([N+](=O)[O-])cc1[18F])C(C)C | 0.14 %ID

Tested on: Liver
Experiment: Biodistribution in S180 tumor-bearing KM mouse liver assessed per gram of tissue at 240 to 370 kBq, iv after 30 mins
Format: ADME, organism-based
Settings: in vivo, 0.5 h

Compound | Drug uptake
COC(=O)[C@@H](NC(=O)c1ccc([N+](=O)[O-])cc1[18F])C(C)C | 3.66 %ID

Tested on: Liver
Experiment: Biodistribution in S180 tumor-bearing KM mouse liver assessed per gram of tissue weight at 240 to 370 kBq, iv after 15 mins
Format: ADME, organism-based
Settings: in vivo, 0.25 h

Compound | Drug uptake
COC(=O)[C@@H](NC(=O)c1ccc([N+](=O)[O-])cc1[18F])C(C)C | 8.6 %ID

Tested on: Liver
Experiment: Biodistribution in S180 tumor-bearing KM mouse liver assessed per gram of tissue weight at 240 to 370 kBq, iv after 5 mins
Format: ADME, organism-based
Settings: in vivo

Compound | Drug uptake
COC(=O)[C@@H](NC(=O)c1ccc([N+](=O)[O-])cc1[18F])C(C)C | 15.9 %ID

Tested on: Heart
Experiment: Biodistribution in S180 tumor-bearing KM mouse heart assessed per gram of tissue weight at 240 to 370 kBq, iv after 120 mins
Format: ADME, organism-based
Settings: in vivo, 2 h

Compound | Drug uptake
COC(=O)[C@@H](NC(=O)c1ccc([N+](=O)[O-])cc1[18F])C(C)C | 0.08 %ID

Tested on: Heart
Experiment: Biodistribution in S180 tumor-bearing KM mouse heart assessed per gram of tissue weight at 240 to 370 kBq, iv after 60 mins
Format: ADME, organism-based
Settings: in vivo, 1 h

Compound | Drug uptake
COC(=O)[C@@H](NC(=O)c1ccc([N+](=O)[O-])cc1[18F])C(C)C | 0.19 %ID
